Measurements published in paper PMC3941082 (Journal of electroanalytical chemistry (Lausanne, …, 2014).

Target: Concanavalin A (Con A), as Con A-ALP conjugate (Canavalia ensiformis, UniProt P02866)
Experiment: competitive electrochemical lectin assay
Type: binding

Sequence of Concanavalin A (Con A), as Con A-ALP conjugate (P02866 164-281 limits assumed): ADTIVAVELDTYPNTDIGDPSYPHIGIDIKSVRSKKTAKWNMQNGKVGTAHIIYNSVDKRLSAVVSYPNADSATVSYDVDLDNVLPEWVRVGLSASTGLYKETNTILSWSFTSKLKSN
Sequence of Concanavalin A (Con A), as Con A-ALP conjugate (P02866 30-148 limits assumed): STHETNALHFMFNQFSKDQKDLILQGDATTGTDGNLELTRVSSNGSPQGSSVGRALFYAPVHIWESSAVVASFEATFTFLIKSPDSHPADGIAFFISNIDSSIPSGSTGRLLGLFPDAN

Work on `CO[C@H]1O[C@H](CO)[C@@H](O)[C@H](O)[C@@H]1O` [methyl α-D-mannopyranoside] yielded an IC50 of about 90 µM.
